The record followed here is US20150011508A1, “COMPOUNDS AND COMPOSITIONS AS C-KIT KINASE INHIBITORS” (priority 2011, published 2015).

The IC50 is the concentration at which inhibition is half-maximal.

T1 sequence (P10721 26-976): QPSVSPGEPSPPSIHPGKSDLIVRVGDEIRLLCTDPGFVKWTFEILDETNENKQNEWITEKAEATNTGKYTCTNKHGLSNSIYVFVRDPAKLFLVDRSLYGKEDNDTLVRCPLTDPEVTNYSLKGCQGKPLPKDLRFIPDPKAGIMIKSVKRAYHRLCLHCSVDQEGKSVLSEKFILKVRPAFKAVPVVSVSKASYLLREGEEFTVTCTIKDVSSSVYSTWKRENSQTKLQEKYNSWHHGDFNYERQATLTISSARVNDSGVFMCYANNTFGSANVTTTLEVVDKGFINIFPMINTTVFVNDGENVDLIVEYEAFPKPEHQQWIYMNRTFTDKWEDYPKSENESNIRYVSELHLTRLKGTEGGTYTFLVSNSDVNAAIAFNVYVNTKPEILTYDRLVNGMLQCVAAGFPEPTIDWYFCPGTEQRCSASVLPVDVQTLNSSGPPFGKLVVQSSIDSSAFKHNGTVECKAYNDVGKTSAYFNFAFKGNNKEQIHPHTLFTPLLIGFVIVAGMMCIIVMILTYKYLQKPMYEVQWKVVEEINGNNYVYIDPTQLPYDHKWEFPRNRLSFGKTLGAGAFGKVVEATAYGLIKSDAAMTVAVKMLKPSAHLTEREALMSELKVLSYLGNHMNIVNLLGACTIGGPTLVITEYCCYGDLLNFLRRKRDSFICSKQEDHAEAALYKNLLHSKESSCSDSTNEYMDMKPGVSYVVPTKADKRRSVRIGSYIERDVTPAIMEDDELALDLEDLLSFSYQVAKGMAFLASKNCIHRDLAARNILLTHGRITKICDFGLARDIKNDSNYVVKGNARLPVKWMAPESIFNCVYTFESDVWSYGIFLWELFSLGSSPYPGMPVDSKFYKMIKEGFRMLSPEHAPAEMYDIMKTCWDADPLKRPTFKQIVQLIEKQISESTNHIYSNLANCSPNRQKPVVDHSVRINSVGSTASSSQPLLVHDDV

One test addresses T1, c-kit (Homo sapiens, UniProt P10721).
T1 construct: human Mo7e cells which endogenously express c-kit; endogenous in cells; host or cells: human Mo7e cells (SCF-dependent promegakaryocytic leukemia line)
The test can be described thus: Mo7e cell proliferation assay (SCF dependent proliferation). Type of test: cell-based. The note with it: Table 2, values marked *: 20% FBS instead of 1% FBS. A digest of the protocol: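 SCF-dependent proliferation of human Mo7e cells, which express c-kit endogenously, was measured after 48 h at 37° C by CellTiter Glo luminescence. IC50 was taken as the concentration giving a response halfway between the baseline and maximum responses.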
The molecule `Cc1ccc(-c2nc(CC(=O)N(C)C)no2)cc1NC(=O)c1cnc2ccccn12` [F233] gave an IC50 greater than 6000 nM.

Still in this test, the particulars now being: Table 2; human Mo7e cells stimulated with human recombinant SCF, 48 h, CellTiter Glo; 1% FBS (footnote).
On to `COC(=O)NCc1nc(-c2ccc(C)c(NC(=O)c3cnc4cc(CCC(C)(C)O)ccn34)c2)no1` [F178], for which the IC50 amounted to 279 nM.

As to `COCCOCc1nc(-c2ccc(C)c(NC(=O)c3cnc4ccc(F)cn34)c2)no1` [F179], the IC50 turned out to be 139 nM.

As to `CC(=O)CCc1ccc2ncc(C(=O)Nc3cc(-c4noc(C)n4)ccc3C)n2c1` [F180], the IC50 amounted to 356 nM.

For `Cc1nc(-c2ccc(C)c(NC(=O)c3cnc4ccc(CCC(C)(C)O)cn34)c2)no1` [F181], the IC50 came to 287 nM.

As for `COCCOCc1nc(-c2ccc(F)c(NC(=O)c3cnc4ccc(-c5cnn(CC(C)(C)O)c5)cn34)c2)no1` [F182], the IC50 stood at 328 nM.

In the case of `CC(C)(O)CCc1nc(-c2ccc(F)c(NC(=O)c3cnc4ccc(-c5cnn(CC(C)(C)O)c5)cn34)c2)no1` [F183], the IC50 was determined as 394 nM.

Turning to `Cc1ccc(-c2noc(CCC(C)(C)O)n2)cc1NC(=O)c1cnc2ccc(CCN3CCOCC3)cn12` [F184], the IC50 came to 158 nM.

With `Cc1nc(-c2ccc(C)c(NC(=O)c3cnc4ccc(C#N)cn34)c2)no1` [F185], the IC50 came out at 508 nM.

Take `Cc1nc(-c2ccc(C)c(NC(=O)c3cnc4ccc(CCN5CCOCC5C)cn34)c2)no1` (centres unmarked) [F186]: the IC50 turned out to be 416 nM.

Regarding `Cc1nc(-c2ccc(C)c(NC(=O)c3cnc4cc(C#N)ccn34)c2)no1` [F187], the IC50 turned out to be 219 nM.

Consider `COCCOCc1nc(-c2ccc(C)c(NC(=O)c3cnc4ccc(OC)cn34)c2)no1` [F188], for which the IC50 was 103 nM.

As for `Cc1ccc(-c2noc(C(C)C)n2)cc1NC(=O)c1cnc2ccccn12` [F189], the IC50 was determined as 122 nM.

For the molecule `COCCOCc1nc(-c2cc(NC(=O)c3cnc4ccccn34)c(C)cc2C)no1` [F190], the IC50 turned out to be 119 nM.

Regarding `Cc1ccc(-c2noc(CCC(C)(C)O)n2)cc1NC(=O)c1cnc2cc(N3CCOC3=O)ccn12` [F191], the IC50 worked out at 272 nM.

As to `Cc1ccc(-c2noc(NCC(C)(C)O)n2)cc1NC(=O)c1cnc2cc(F)ccn12` [F192], the IC50 worked out at 313 nM.

`Cc1ccc2ncc(C(=O)Nc3cc(-c4noc(NCC(C)(C)O)n4)ccc3C)n2c1` [F193]: the IC50 was 166 nM.

As for `Cc1ccc(-c2noc(CCC(C)(C)O)n2)cc1NC(=O)c1cnc2ccc(N3CCOCC3)cn12` [F194], the concentration for half-maximal inhibition (IC50) was determined as 126 nM.

Regarding `Cc1ccc(-c2noc(CCC(C)(C)O)n2)cc1NC(=O)c1cnc2ccc(COCC(F)(F)F)cn12` [F195], the IC50 turned out to be 150 nM.

In the case of `COCc1n[nH]c(-c2ccc3ncc(C(=O)Nc4cc(-c5noc(C)n5)ccc4C)n3c2)n1` [F196], the IC50 was 414 nM.

With `COCCNc1nc(-c2ccc(C)c(NC(=O)c3cnc4cc(C)ccn34)c2)no1` [F197], the IC50 turned out to be 110 nM.

Consider `Cc1ccc(-c2noc(C(C)O)n2)cc1NC(=O)c1cnc2ccccn12` (centres unmarked) [F198], for which the IC50 worked out at 255 nM.

`Cc1ccc(-c2noc(C(F)C(F)(F)F)n2)cc1NC(=O)c1cnc2ccccn12` (centres unmarked) [F199]: the IC50 is 126 nM.

As for `Cc1ccc(-c2noc(C(C)F)n2)cc1NC(=O)c1cnc2ccccn12` (centres unmarked) [F200], the IC50 was 120 nM.

Take `Cc1nc(-c2ccc(C)c(NC(=O)c3cnc4ccc(-c5cnccn5)cn34)c2)no1` [F201]: the IC50 amounted to 125 nM.

On to `Cc1nc(-c2ccc(C)c(NC(=O)c3cnc4ccc(-c5cnccc5C)cn34)c2)no1` [F202], for which the IC50 amounted to 135 nM.

Consider `Cc1nc(-c2ccc(C)c(NC(=O)c3cnc4ccc(C5CC5)cn34)c2)no1` [F203], for which the half-inhibitory concentration (IC50) turned out to be 144 nM.

For the molecule `COC(=O)NCc1nc(-c2ccc(C)c(NC(=O)c3cnc4ccc(C)cn34)c2)no1` [F204], the IC50 was 157 nM.

For the molecule `CCC(C)(O)c1nc(-c2ccc(C)c(NC(=O)c3cnc4ccccn34)c2)no1` (centres unmarked) [F205], the IC50 came to 174 nM.

For the molecule `Cc1nc(-c2ccc(C)c(NC(=O)c3cnc4ccc(-c5cncnc5)cn34)c2)no1` [F206], the IC50 amounted to 196 nM.

With `Cc1cc(-c2ccc3ncc(C(=O)Nc4cc(-c5noc(C)n5)ccc4C)n3c2)n(C)n1` [F207], the half-maximal inhibitory concentration (IC50) was determined as 223 nM.

Regarding `Cc1nc(-c2ccc(C)c(NC(=O)c3cnc4ccc(-c5ccnn5C)cn34)c2)no1` [F208], the half-maximal inhibitory concentration (IC50) stood at 228 nM.

For `CCNC(=O)Cc1nc(-c2ccc(C)c(NC(=O)c3cnc4ccccn34)c2)no1` [F209], the half-maximal inhibitory concentration (IC50) turned out to be 318 nM.

On to `CCN(CC)C(=O)Cc1nc(-c2ccc(C)c(NC(=O)c3cnc4ccccn34)c2)no1` [F210], for which the IC50 is 431 nM.

Turning to `Cc1nc(-c2ccc(C)c(NC(=O)c3cnc4ccc(CCN5CCNCC5)cn34)c2)no1` [F211], the IC50 was found to be 571 nM.

As to `Cc1nc(-c2ccc(C)c(NC(=O)c3cnc4ccc(CCN5CCOCC5)cn34)c2)no1` [F212], the IC50 was 691 nM.

For the molecule `CC(=O)N[C@@H](C)c1nc(-c2ccc(C)c(NC(=O)c3cnc4ccccn34)c2)no1` [F213], the IC50 came to 795 nM.

`COCc1n[nH]c(-c2ccc3ncc(C(=O)Nc4cc(-c5noc(CCC(C)(C)O)n5)ccc4C)n3c2)n1` [F214]: the IC50 came to 805 nM.

On to `COCCOCc1nc(-c2ccc(C)c(NC(=O)c3cnc4ccccn34)c2C)no1` [F215], for which the IC50 came out at 886 nM.

For `COC(=O)NCc1nc(-c2ccc(C)c(NC(=O)c3cnc4ccc(CCC(=O)OC(C)(C)C)cn34)c2)no1` [F216], the IC50 turned out to be 1030 nM.

Regarding `Cc1ccc(-c2noc(CN)n2)cc1NC(=O)c1cnc2ccccn12` [F217], the IC50 stood at 1030 nM.

Consider `Cc1ccc(-c2noc(C(C)(C)N)n2)cc1NC(=O)c1cnc2ccccn12` [F218], for which the IC50 was found to be 1060 nM.

In the case of `Cc1ccc(-c2noc(C[C@@H](C)N)n2)cc1NC(=O)c1cnc2ccccn12` [F219], the IC50 is 1190 nM.

Take `Cc1ccc(-c2noc(CNC(=O)OCCC(F)(F)F)n2)cc1NC(=O)c1cnc2ccccn12` [F220]: the concentration for half-maximal inhibition (IC50) stood at 1190 nM.

For `Cc1ccc(-c2noc(CCC(C)(C)O)n2)cc1NC(=O)c1cnc2ccc(-n3ccnc3)cn12` [F221], the IC50 was 1250 nM.

With `CC(=O)NCCCc1nc(-c2ccc(C)c(NC(=O)c3cnc4ccccn34)c2)no1` [F222], the half-inhibitory concentration (IC50) is 1320 nM.

With `Cc1ccc(-c2noc(CNC(=O)CC(C)(C)O)n2)cc1NC(=O)c1cnc2ccccn12` [F223], the IC50 was 1460 nM.

On to `Cc1ccc(-c2noc(CNC(=O)CCO)n2)cc1NC(=O)c1cnc2ccccn12` [F224], for which the concentration for half-maximal inhibition (IC50) worked out at 1480 nM.

On to `Cc1ccc(-c2nc(C(C)(C)C)no2)cc1NC(=O)c1cnc2ccccn12` [F225], for which the IC50 was found to be 1590 nM.

On to `Cc1ccc(-c2noc(CCN)n2)cc1NC(=O)c1cnc2ccccn12` [F226], for which the IC50 turned out to be 2180 nM.

Turning to `Cc1ccc(-c2noc(CC#N)n2)cc1NC(=O)c1cnc2ccccn12` [F227], the IC50 was 2380 nM.

In the case of `Cc1ccc(-c2noc(CCC(=O)O)n2)cc1NC(=O)c1cnc2ccccn12` [F229], the IC50 came to 5450 nM.

`COC(=O)NCc1nc(-c2ccc(C)c(NC(=O)c3cnc4ccc(CCC(=O)O)cn34)c2)no1` [F230]: the IC50 was greater than 10000 nM.

Take `Cc1ccc(-c2noc(CC(F)(F)F)n2)cc1NC(=O)c1cnc2ccccn12` [F231]: the IC50 is greater than 10000 nM.

Take `COC(=O)NCc1nc(-c2ccc(C)c(NC(=O)c3cnc4cc(CCC(=O)O)ccn34)c2)no1` [F232]: the 50% inhibitory concentration (IC50) is greater than 10000 nM.

As to `Cc1nc(-c2ccc(C)c(NC(=O)c3cnc4ccc(-c5c(C)nn(CC(=O)OC(C)(C)C)c5C)cn34)c2)no1` [F234], the IC50 turned out to be 209 nM.
